From ChEMBL document CHEMBL1649185, “Antibacterial activity of ultrashort cationic lipo-beta-peptides” (2009)
≈ marks a conversion by molar mass, not a printed value. Square brackets hold non-standard residues; d marks the D form. Peptide text beside a SMILES is read from it. * marks the point of attachment. Palmitoyl = CCCCCCCCCCCCCCCC(=O)*; Lauroyl = CCCCCCCCCCCC(=O)*

Tests used:
Type in all cases: functional
[1] = test system: Stenotrophomonas maltophilia; assay: Antimicrobial activity against Stenotrophomonas maltophilia CAN-ICU 62584 […]
Pseudomonas aeruginosa [2] = assay: Antimicrobial activity against Pseudomonas aeruginosa CAN-ICU 62308 […]
Staphylococcus aureus [3] = assay: Antimicrobial activity against Staphylococcus aureus ATCC 29213 […]
Staphylococcus aureus [4] = assay: Antimicrobial activity against methicillin-resistant Staphylococcus aureus ATCC 33592 […]
[5] = test system: Staphylococcus epidermidis; assay: Antimicrobial activity against methicillin-resistant Staphylococcus epidermidis CAN-ICU 61589 […]
[6] = test system: Staphylococcus epidermidis; assay: Antimicrobial activity against Staphylococcus epidermidis ATCC 14990 […]
Escherichia coli [7] = assay: Antimicrobial activity against Escherichia coli CAN-ICU 61714 […]
Acinetobacter baumannii = assay: Antimicrobial activity against Acinetobacter baumannii CAN-ICU 63169 by […]
Escherichia coli [8] = assay: Antimicrobial activity against Escherichia coli CAN-ICU 63074 […]
Enterococcus faecalis = assay: Antimicrobial activity against Enterococcus faecalis ATCC 29212 […]
Klebsiella pneumoniae = assay: Antimicrobial activity against Klebsiella pneumoniae ATCC 13883 […]
Escherichia coli [9] = assay: Antimicrobial activity against Escherichia coli ATCC 25922 by […]
Pseudomonas aeruginosa [10] = assay: Antimicrobial activity against Pseudomonas aeruginosa ATCC 27853 […]
Streptococcus pneumoniae = assay: Antimicrobial activity against Streptococcus pneumoniae ATCC 49619 […]
Enterococcus faecium = assay: Antimicrobial activity against Enterococcus faecium ATCC 27270 […]

Molecule | MIC [1] [µg/mL] | MIC (Pseudomonas aeruginosa [2]) [µg/mL] | MIC (Staphylococcus aureus [3]) [µg/mL] | MIC (Staphylococcus aureus [4]) [µg/mL] | MIC [5] [µg/mL] | MIC [6] [µg/mL] | MIC (Escherichia coli [7]) [µg/mL] | MIC (Acinetobacter baumannii) [µg/mL] | MIC (Escherichia coli [8]) [µg/mL] | MIC (Enterococcus faecalis) [µg/mL] | MIC (Klebsiella pneumoniae) [µg/mL] | MIC (Escherichia coli [9]) [µg/mL] | MIC (Pseudomonas aeruginosa [10]) [µg/mL] | MIC (Streptococcus pneumoniae) [µg/mL] | MIC (Enterococcus faecium) [µg/mL]
CCCCCCCCCCCCCCCC(=O)N[C@@H](CCCCN)C(=O)N[C@@H](CCCCN)C(=O)N[C@@H](CCCCN)C(=O)N[C@@H](CCCCN)C(=O)O (Palmitoyl-KKKK-OH) | 256 (≈ 333 µM) | 256 (≈ 333 µM) | 32 (≈ 41.6 µM) | 16 (≈ 20.8 µM) | 8 (≈ 10.4 µM) | 4 (≈ 5.2 µM) | 16 (≈ 20.8 µM) | 256 (≈ 333 µM) | 32 (≈ 41.6 µM) | 16 (≈ 20.8 µM) | 256 (≈ 333 µM) | 16 (≈ 20.8 µM) | 64 (≈ 83.2 µM) | > 64 | 16 (≈ 20.8 µM)
CCCCCCCCCCCCCCCC(=O)N[C@H](CCCN)CC(=O)N[C@H](CCCN)CC(=O)N[C@H](CCCN)CC(=O)N[C@H](CCCN)CC(=O)O | 256 (≈ 333 µM) | 128 (≈ 166 µM) | 16 (≈ 20.8 µM) | 16 (≈ 20.8 µM) | 4 (≈ 5.2 µM) | 4 (≈ 5.2 µM) | 32 (≈ 41.6 µM) | 256 (≈ 333 µM) | 32 (≈ 41.6 µM) | 32 (≈ 41.6 µM) | 128 (≈ 166 µM) | 16 (≈ 20.8 µM) | 64 (≈ 83.2 µM) | 128 (≈ 166 µM) | 16 (≈ 20.8 µM)
CCCCCCCCCCCCCCCC(=O)N[C@H](CCCN)CC(=O)NCCC(=O)NCCC(=O)N[C@H](CCCN)CC(=O)O | > 128 | 128 (≈ 195 µM) | 64 (≈ 97.7 µM) | 32 (≈ 48.9 µM) | 16 (≈ 24.4 µM) | 8 (≈ 12.2 µM) | 64 (≈ 97.7 µM) | 256 (≈ 391 µM) | 64 (≈ 97.7 µM) | 32 (≈ 48.9 µM) | > 128 | 64 (≈ 97.7 µM) | 256 (≈ 391 µM) | > 64 | 32 (≈ 48.9 µM)
CCCCCCCCCCCC(=O)N[C@@H](CCCCN)C(=O)N[C@@H](CC(C)C)C(=O)N[C@@H](CC(C)C)C(=O)N[C@@H](CCCCN)C(=O)O (Lauroyl-KLLK-OH) | > 256 | 128 (≈ 187 µM) | 16 (≈ 23.4 µM) | 16 (≈ 23.4 µM) | 16 (≈ 23.4 µM) | 16 (≈ 23.4 µM) | 128 (≈ 187 µM) | > 64 | 128 (≈ 187 µM) | 32 (≈ 46.9 µM) | 256 (≈ 375 µM) | 128 (≈ 187 µM) | 128 (≈ 187 µM) | 128 (≈ 187 µM) | 16 (≈ 23.4 µM)
CCCCCCCCCCCCCCCC(=O)N[C@@H](CCCCN)C(=O)N[C@@H](C)C(=O)N[C@H](C)C(=O)N[C@@H](CCCCN)C(=O)O (Palmitoyl-KA[dA]K-OH) | 128 (≈ 195 µM) | 64 (≈ 97.7 µM) | 8 (≈ 12.2 µM) | 32 (≈ 48.9 µM) | 8 (≈ 12.2 µM) | 4 (≈ 6.11 µM) | 32 (≈ 48.9 µM) | 128 (≈ 195 µM) | 32 (≈ 48.9 µM) | 16 (≈ 24.4 µM) | 128 (≈ 195 µM) | 32 (≈ 48.9 µM) | 64 (≈ 97.7 µM) | 128 (≈ 195 µM) | 8 (≈ 12.2 µM)
CCCCCCCCCCCCCCCC(=O)N[C@@H](CCCCN)C(=O)NCC(=O)NCC(=O)N[C@@H](CCCCN)C(=O)O | 128 (≈ 204 µM) | 64 (≈ 102 µM) | 8 (≈ 12.8 µM) | 16 (≈ 25.5 µM) | 8 (≈ 12.8 µM) | 4 (≈ 6.38 µM) | 16 (≈ 25.5 µM) | 128 (≈ 204 µM) | 16 (≈ 25.5 µM) | 8 (≈ 12.8 µM) | 64 (≈ 102 µM) | 16 (≈ 25.5 µM) | 64 (≈ 102 µM) | 128 (≈ 204 µM) | 16 (≈ 25.5 µM)
GENTAMICIN | > 512 | 128 | 1 | 2 | 32 | 0.25 | 128 | 128 | 8 |  | 0.25 | 1 | 8 | 4 | 
